Key:
BoNT/A = details: mouse, in vivo; cited from earlier work
MMPs = format: biochemical

## O=C(/C=C/c1ccc(Cl)cc1Cl)NO [Compound 7, 2,4-dichlorocinnamic hydroxamic acid]
BoNT/A
  rescued mice: 16%
  small molecule-associated toxicity: no small molecule-associated toxicity

## CS(=O)(=O)SCCCCCN(O)C(=O)/C=C/c1ccc(Cl)cc1Cl [Compound 31, (E)-S-(5-(3-(2,4-dichlorophenyl)-N-hydroxyacrylamido)pentyl) methanesulfonothioate]
HEK293 cells
  IC50: did not inhibit cells to the extent that an IC50 value could be calculated

## CS(=O)(=O)SCCCNC(=O)CC(CC(=O)NO)c1ccc(Cl)cc1Cl (stereo not drawn) [Compound 53, S-(3-(3-(2,4-dichlorophenyl)-5-(hydroxyamino)-5-oxopentanamido)propyl) methanesulfonothioate]
MMPs
  MMP inhibition: inhibits MMPs significantly less than 32
  covalent inhibition: no covalent inhibition was observed
HEK293 cells
  cellular toxicity: did not exhibit cellular toxicity

## CS(=O)(=O)SCCCCCCN(O)C(=O)/C=C/c1ccc(Cl)cc1Cl [Compound 32, (E)-S-(6-(3-(2,4-dichlorophenyl)-N-hydroxyacrylamido)hexyl) methanesulfonothioate]
MMPs
  covalent inhibition: no covalent inhibition was observed

## CCCCCNC(=O)CC(CC(=O)NO)c1ccc(Cl)cc1Cl (centres unmarked) [Compound 59, 3-(2,4-dichlorophenyl)-N^1-hydroxy-N^5-pentylpentanediamide]
HEK293 cells
  cellular toxicity: did not exhibit cellular toxicity

From paper PMC7581224 (Journal of medicinal chemistry, 2020)
